Source: publication PMC2132544 (The Journal of Cell Biology, 1997)
Where two headings read alike, the source gives them in different places.

Tests used:
[1] = system: Shigella flexneri intracellular motility in PtK2 cells; conditions: cited from earlier work
[2] = system: Shigella flexneri intracellular motility in PtK2 cells; type: cell-based
[3] = microinjected peptide, ref Zeile et al. (1996)

Molecule: poly- L-proline [poly-L-proline]
- effect on Shigella motility ([1]; poly-L-proline intracellular concentration 1 μM, ref Zeile et al., 1996): failed to inhibit motility

Molecule: Gly-Pro-Pro-Pro-Pro Pro [ABM-2 peptide]
- effect on Shigella motility [1, 3]: blocks Shigella actin-based motility

Molecule: FEFPPPPTDE [ActA ABM-1 peptide]
- effect on Shigella motility [1, 3]: arrested intracellular Shigella motility

B1: full-length vinculin: Full-length 120-kD human platelet vinculin (protein, UniProt P18206 1-1134, looked up)
Vinculin: MPVFHTRTIESILEPVAQQISHLVIMHEEGEVDGKAIPDLTAPVAAVQAAVSNLVRVGKETVQTTEDQILKRDMPPAFIKVENACTKLVQAAQMLQSDPYSVPARDYLIDGSRGILSGTSDLLLTFDEAEVRKIIRVCKGILEYLTVAEVVETMEDLVTYTKNLGPGMTKMAKMIDERQQELTHQEHRVMLVNSMNTVKELLPVLISAMKIFVTTKNSKNQGIEEALKNRNFTVEKMSAEINEIIRVLQLTSWDEDAWASKDTEAMKRALASIDSKLNQAKGWLRDPSASPGDAGEQAIRQILDEAGKVGELCAGKERREILGTCKMLGQMTDQVADLRARGQGSSPVAMQKAQQVSQGLDVLTAKVENAARKLEAMTNSKQSIAKKIDAAQNWLADPNGGPEGEEQIRGALAEARKIAELCDDPKERDDILRSLGEISALTSKLADLRRQGKGDSPEARALAKQVATALQNLQTKTNRAVANSRPAKAAVHLEGKIEQAQRWIDNPTVDDRGVGQAAIRGLVAEGHRLANVMMGPYRQDLLAKCDRVDQLTAQLADLAARGEGESPQARALASQLQDSLKDLKARMQEAMTQEVSDVFSDTTTPIKLLAVAATAPPDAPNREEVFDERAANFENHSGKLGATAEKAAAVGTANKSTVEGIQASVKTARELTPQVVSAARILLRNPGNQAAYEHFETMKNQWIDNVEKMTGLVDEAIDTKSLLDASEEAIKKDLDKCKVAMANIQPQMLVAGATSIARRANRILLVAKREVENSEDPKFREAVKAASDELSKTISPMVMDAKAVAGNISDPGLQKSFLDSGYRILGAVAKVREAFQPQEPDFPPPPPDLEQLRLTDELAPPKPPLPEGEVPPPRPPPPEEKDEEFPEQKAGEVINQPMMMAARQLHDEARKWSSKPGIPAAEVGIGVVAEADAADAAGFPVPPDMEDDYEPELLLMPSNQPVNQPILAAAQSLHREATKWSSKGNDIIAAAKRMALLMAEMSRLVRGGSGTKRALIQCAKDIAKASDEVTRLAKEVAKQCTDKRIRTNLLQVCERIPTISTQLKILSTVKATMLGRTNISDEESEQATEMLVHNAQNLMQSVKETVREAEAASIKIRTDAGFTLRWVRKTPWYQ
- effect on bacterial migration speeds ([2]; estimated intracellular 0.12 μM (identical to p90)): failed to cause any significant change
- effect on Shigella intracellular motility ([2]; needle concentration 2.2 μM, estimated intracellular concentration 0.22 μM): failed to accelerate
